{"source": "patent US8852869B2", "about": "“Method of determining functional deficiencies in the complement system” (Immunobond ApS, priority 2007, dated 2014)", "test_system": "alternative complement pathway (AP)", "test": "Functional capacity of the alternative pathway on LPS-coated surface", "assay_type": "biochemical, human", "conditions": "10 mM EDTA present in the dilution buffer; data not shown", "method": "The protocol for the functional capacity of the AP was similar to the method for the CP assay, with the following modification: Lipopolysaccharide W S. typhimurium (10 ug/ml) (lot. 51974, DICO LABORAORIES, US) was coated in 1M NaCl and used as activating surface for AP activation. The serum samples were diluted in dilution buffer with 4 mM Mg^2+, 10 mM EGTA, and 0.05% Tween-20 and were incubated for 60 min at 37° C. The C3, properdin and C9 deposition was measured by adding 100 μl of mAbs.\nThe influence of PAS on complement activation via the AP was also analyzed. NHS and C2-deficient serum diluted in dilution buffer containing 4 mM Mg^2+ and 10 mM EGTA was incubated in microtiter-wells (PolySorp), coated with LPS as described above in the presence or absence of PAS and deposition of complement components (C3b/C3bi, properdin and C9) was detected.\nVarious concentrations of PAS were used in order to determine a dose-response curve for PAS. Experiments were performed as described above only with varying the amount of PAS added to the sample."}
{"smiles": "O=C(O)CN(CCN(CC(=O)O)CC(=O)O)CC(=O)O", "note": "[EDTA]", "values": [{"measurement": "Deposition of C3, properdin and C9 (all three complement components)", "result": "reduced to background levels"}]}
